From ChEMBL document CHEMBL1126840, “Steroidal affinity labels of the estrogen receptor. 1. 17 alpha-(Bromoacetoxy)alkyl/alkynylestradiols” (J Med Chem, 1993) come the findings set out here.

For experiment [1], the target named is T1, Estrogen receptor (Ovis aries) (UniProt P49885+Q9TU15).
Experiment [2] deals with T1, Estrogen receptor (Ovis aries). This is another data set of the same source.
For experiment [3] the target is unchanged. The source holds these as a separate data set.

The structures appear in SMILES notation.

Regarding `C[C@]12CC[C@@H]3c4ccc(O)cc4CC[C@H]3[C@@H]1CC[C@@]2(O)CC1CO1` (stereo in doubt; 6a), the results for the RAC app in experiment [1], in experiment [2] and in experiment [3] were 1.3, 12 and 0.044, respectively.
In the case of `C[C@]12CC[C@@H]3c4ccc(O)cc4CC[C@H]3[C@@H]1CC[C@@]2(O)C#CCCCCCCO`, the values for the RAC app in experiment [1], in experiment [2] and in experiment [3] were 3.4, 6.5 and 0.4, respectively.
In the same order, the values of `C[C@]12CC[C@@H]3c4ccc(O)cc4CC[C@H]3[C@@H]1CC[C@@]2(O)C#CCCO` are 1, 3.9 and 0.07.
As to `C[C@]12CC[C@@H]3c4ccc(O)cc4CC[C@H]3[C@@H]1CC[C@@]2(O)CCCO`, the results for the RAC app in experiment [1], in experiment [2] and in experiment [3] were 0.28, 1.1 and 0.024, respectively.
On the same counts, the results for `C[C@]12CC[C@@H]3c4ccc(O)cc4CC[C@H]3[C@@H]1CC[C@@]2(O)C#CCCOC(=O)CBr` are 0.79, 2 and 0.066.
In the same order, the values of `C[C@]12CC[C@@H]3c4ccc(O)cc4CC[C@H]3[C@@H]1CC[C@@]2(O)C#CCCCCCCOC(=O)CBr` are 1.5, 2.4 and 0.24.
In the same order, the values of `C[C@]12CC[C@@H]3c4ccc(O)cc4CC[C@H]3[C@@H]1CC[C@@]2(O)CC1CO1` (stereo in doubt; 6b) are 0.2, 3.9 and less than 0.017.
For `C[C@]12CC[C@@H]3c4ccc(O)cc4CC[C@H]3[C@@H]1CC[C@@]2(O)CCCOC(=O)CBr`, the results for the RAC app in experiment [1], in experiment [2] and in experiment [3] were 0.21, 0.94 and 0.021, respectively.
